According to patent US20250313563A1, “GLYCOGEN SYNTHASE KINASE 3 INHIBITORS AND USES THEREOF” (The Broad Institute, Inc., priority 2022, published 2025):
Where two headings read alike, the source gives them in different places.

Tests used:
[1] = biological target: GSK3α (GST-full length GSK3α) (Homo sapiens (Human), UniProt P49840); test: GSK3α TR-FRET kinase assay; assay type: biochemical
Outline: (§1)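 Compound was preincubated 30 min with 1 nM GST-GSK3 enzyme. Reaction ran 100 min at ambient temperature in Tris pH 7.5/MgCl2 with 200 nM biotinylated pS645-glycogen synthase 631-650 peptide and ATP (4 μM GSK3α, 2 μM GSK3b, or 1 mM). The EDTA-stopped reaction was read by TR-FRET (Tb-anti-pSer641/streptavidin-d2), and IC50s were fitted.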

[2] = biological target: GSK3b (GST-full length GSK3b) (Homo sapiens (Human), UniProt P49841); test: GSK3b TR-FRET kinase assay; assay type: biochemical
Sequence of GSK3b (GST-full length GSK3b) (P49841 whole entry): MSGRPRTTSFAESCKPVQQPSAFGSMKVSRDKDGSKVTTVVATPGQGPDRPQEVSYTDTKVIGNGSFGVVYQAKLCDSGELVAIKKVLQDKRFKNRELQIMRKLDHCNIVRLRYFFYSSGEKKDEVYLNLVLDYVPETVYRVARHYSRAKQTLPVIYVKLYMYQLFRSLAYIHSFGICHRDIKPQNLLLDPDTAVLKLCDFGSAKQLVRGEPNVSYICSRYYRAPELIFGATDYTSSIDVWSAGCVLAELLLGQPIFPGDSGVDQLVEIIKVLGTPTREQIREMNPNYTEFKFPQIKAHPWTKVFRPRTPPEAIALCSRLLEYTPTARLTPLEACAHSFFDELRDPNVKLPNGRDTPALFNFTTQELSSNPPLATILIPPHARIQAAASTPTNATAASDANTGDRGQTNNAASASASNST
Outline: as §1

[3] = 1 nM GSK3α, 4 μM ATP, 30 minute preincubation, geometric mean, read-out: GSK3-A TR-FRET BIOCHEMICAL (TR-FRET), GMean, IC50
[4] = 1 nM GSK3b, 2 μM ATP, 30 minute preincubation, geometric mean, read-out: GSK3-B TR-FRET BIOCHEMICAL (TR-FRET), GMean, IC50
[5] = 1 nM GSK3α, 4 μM ATP, 30 minute preincubation, read-out: GSK3-A TR-FRET BIOCHEMICAL (TR-FRET), IC50
[6] = 1 nM GSK3b, 2 μM ATP, 30 minute preincubation, read-out: GSK3-B TR-FRET BIOCHEMICAL (TR-FRET), IC50
[7] = 1 nM GSK3α, 4 μM ATP, 30 minute preincubation, Table 16, read-out: GSK3-A TR-FRET BIOCHEMICAL (TR-FRET), IC50
[8] = 1 nM GSK3b, 2 μM ATP, 30 minute preincubation, Table 16, read-out: GSK3-B TR-FRET BIOCHEMICAL (TR-FRET), IC50
[9] = 1 nM GSK3α, 4 μM ATP, 30 minute preincubation, Table 16, read-out: GSK3-A TR-FRET BIOCHEMICAL (TR-FRET)
[10] = 1 nM GSK3b, 2 μM ATP, 30 minute preincubation, Table 16, read-out: GSK3-B TR-FRET BIOCHEMICAL (TR-FRET)
[11] = read-out: GSK3-A (TR-FRET 1 mM ATP), GMean, IC50, 1 mM ATP, geometric mean
[12] = read-out: GSK3-B (TR-FRET 1 mM ATP), GMean, IC50, 1 mM ATP, geometric mean
[13] = GSK3-A (TR-FRET 1 mM ATP), GMean, IC50, 1 mM ATP, geometric mean
[14] = GSK3-B (TR-FRET 1 mM ATP), GMean, IC50, 1 mM ATP, geometric mean

Sequence of GSK3α (GST-full length GSK3α) (P49840 whole entry): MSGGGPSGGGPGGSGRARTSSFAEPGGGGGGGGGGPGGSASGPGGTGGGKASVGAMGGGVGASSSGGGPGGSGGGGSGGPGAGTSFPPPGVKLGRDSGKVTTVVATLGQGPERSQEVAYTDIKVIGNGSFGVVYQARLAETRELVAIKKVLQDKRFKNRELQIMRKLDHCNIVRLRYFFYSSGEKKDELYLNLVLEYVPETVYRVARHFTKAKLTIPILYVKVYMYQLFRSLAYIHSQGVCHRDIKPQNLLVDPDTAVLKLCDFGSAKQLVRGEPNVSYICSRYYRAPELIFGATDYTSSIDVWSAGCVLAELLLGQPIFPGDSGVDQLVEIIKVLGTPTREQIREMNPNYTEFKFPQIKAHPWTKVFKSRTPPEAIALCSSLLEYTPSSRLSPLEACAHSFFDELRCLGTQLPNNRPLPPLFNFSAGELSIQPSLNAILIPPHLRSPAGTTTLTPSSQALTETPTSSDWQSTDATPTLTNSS

CC1(C)CC(=O)C2=C(C1)Nc1n[nH]c(C(F)(F)F)c1C21CCc2c(F)cccc21 (stereo not drawn) [Compound 806568]
IC50 [1, 3]: 1000 to 5000 nM | IC50 [2, 4]: 100 to 1000 nM

CCC1(c2ccccc2)C2=C(CC3(CCCC3)CC2=O)Nc2n[nH]cc21 (stereo not drawn) [Compound 785737]
IC50 [1, 3]: ≤ 100 nM | IC50 [2, 4]: 100 to 1000 nM

CC1(C)CC(=O)C2=C(C1)Nc1n[nH]cc1[C@]21COC2(CN(C(=O)C3(F)CCC3)C2)C1 [Compound 947735]
IC50 [1, 5]: ≤ 100 nM | IC50 [2, 6]: ≤ 100 nM

CCC1(c2cccc(C(C)(C)F)c2)C2=C(CCN(C)C2=O)Nc2n[nH]cc21 (stereo not drawn) [Compound 913178]
IC50 [1, 5]: 100 to 1000 nM | IC50 [2, 6]: 1000 to 5000 nM

CCC1(c2cccc(S(=O)(=O)C(C)C)c2)C2=C(CC(C)(C)NC2=O)Nc2n[nH]c(C(F)(F)F)c21 (stereo not drawn) [Compound 947800]
IC50 [1, 3]: ≤ 100 nM | IC50 [2, 4]: ≤ 100 nM

CC[C@@]1(c2cccc(Oc3ncccn3)c2)C2=C(CC(C)(C)NC2=O)Nc2n[nH]cc21 [Compound 949335]
IC50 [1, 7]: > 5000 nM | IC50 [2, 8]: > 5000 nM

CCC1(c2cccc(-c3ccnn3C)c2)C2=C(CC(C)(C)CC2=O)Nc2n[nH]c(C)c21 (stereo not drawn) [Compound 883992]
IC50 [1, 7]: ≤ 100 nM | IC50 [2, 8]: ≤ 100 nM

Cn1nccc1CN1CC2(C1)C1=C(CC(C)(C)CC1=O)Nc1n[nH]cc12 [Compound 932653]
IC50 [1, 7]: 1000 to 5000 nM | IC50 [2, 8]: > 5000 nM

CC[C@]1(c2cccc(C)c2)C2=C(CC(C)(C)CC2=O)Nc2n[nH]cc21 [Compound 789561]
IC50 [1, 3]: 1000 to 5000 nM | IC50 [2, 4]: > 5000 nM

CCC1(c2cccc(C(F)(F)F)c2)C2=C(CC(C(C)(C)C)NC2=O)Nc2n[nH]cc21 (stereo not drawn) [Compound 945921]
IC50 [1, 5]: 1000 to 5000 nM | IC50 [2, 6]: > 5000 nM

CC[C@@]1(c2cccc(-c3cnn(C(F)F)c3)c2)C2=C(CC(C)(C)NC2=O)Nc2n[nH]cc21 [Compound 948816]
IC50 [1, 3]: > 5000 nM | IC50 [2, 4]: > 5000 nM

CCC1(c2cccc(-c3cc(C)nn3C)c2)C2=C(CC(C)(C)NC2=O)Nc2n[nH]cc21 (stereo not drawn) [Compound 943966]
IC50 [1, 5]: ≤ 100 nM | IC50 [2, 6]: 100 to 1000 nM

CC[C@]1(c2ccccc2)C2=C(C[C@@](C)(COC)CC2=O)Nc2n[nH]cc21 [Compound 816873]
IC50 [1, 3]: 100 to 1000 nM | IC50 [2, 4]: 1000 to 5000 nM

CC[C@@]1(c2cccc(-c3ccnc4cnccc34)c2)C2=C(CC(C)(C)NC2=O)Nc2n[nH]cc21 [Compound 948819]
IC50 [1, 3]: 1000 to 5000 nM | IC50 [2, 4]: > 5000 nM

CC[C@@]1(c2cccc(-c3cnn(-c4ccccn4)c3)c2)C2=C(CC(C)(C)NC2=O)Nc2n[nH]cc21 [Compound 949264]
IC50 [1, 7]: > 5000 nM | IC50 [2, 8]: > 5000 nM

CC1(C)CC(=O)C2=C(C1)Nc1n[nH]cc1C21CN(S(=O)(=O)c2ccc(F)cc2)C1 [Compound 917144]
IC50 [1, 9]: ≤ 100 nM | IC50 [2, 10]: ≤ 100 nM

CC[C@]1(c2cccc(-c3ccncc3C)c2)C2=C(CC(C)(C)NC2=O)Nc2n[nH]cc21 [Compound 947574]
IC50 [1, 3]: ≤ 100 nM | IC50 [2, 4]: ≤ 100 nM

CC[C@@]1(c2cccc(-c3cnn(C)c3C)c2)C2=C(CC(C)(C)NC2=O)Nc2n[nH]cc21 [Compound 945617]
IC50 [1, 5]: 1000 to 5000 nM | IC50 [2, 6]: > 5000 nM

CC1(C)CC(=O)C2=C(C1)Nc1n[nH]cc1C21CC2(COC2)C1 [Compound 912168]
IC50 [1, 5]: > 5000 nM | IC50 [2, 6]: > 5000 nM

CC1(C)CC(=O)C2=C(C1)Nc1n[nH]cc1C21CCC(n2cnnc2)CC1 (stereo not drawn) [Compound 943894]
IC50 [1, 9]: ≤ 100 nM | IC50 [2, 10]: 100 to 1000 nM

CCC1(c2cccc(N3CC(C)C(C)C3)c2)C2=C(CC(C)(C)CC2=O)Nc2n[nH]cc21 (stereo not drawn) [Compound 918327]
IC50 [1, 7]: 1000 to 5000 nM | IC50 [2, 8]: > 5000 nM

CCC1(c2cccc(S(=O)(=O)c3ccccc3)c2)C2=C(CC(C)(C)CC2=O)Nc2n[nH]cc21 (stereo not drawn) [Compound 913123]
IC50 [1, 7]: ≤ 100 nM | IC50 [1, 11]: ≤ 100 nM | IC50 [2, 8]: ≤ 100 nM | IC50 [2, 12]: 100 to 1000 nM

CCC1(c2cccc(-c3ccnc4c3CCCC4)c2)C2=C(CC(C)(C)CC2=O)Nc2n[nH]cc21 (stereo not drawn) [Compound 944033]
IC50 [1, 9]: ≤ 100 nM | IC50 [1, 11]: ≤ 100 nM | IC50 [2, 10]: ≤ 100 nM | IC50 [2, 12]: 100 to 1000 nM

Cn1cncc1-c1cccc([C@@]2(C)C3=C(CC(C)(C)CC3=O)Nc3n[nH]c(CC(C)(C)C)c32)c1 [Compound 126015]
IC50 [1, 11]: > 5000 nM | IC50 [2, 12]: > 5000 nM

CCc1cccc(N(C)c2cccc([C@]3(CC)C4=C(CC(C)(C)CC4=O)Nc4n[nH]cc43)c2)n1 [Compound 945726]
IC50 [1, 9]: 1000 to 5000 nM | IC50 [2, 10]: > 5000 nM

CC1(C)CC(=O)C2=C(C1)Nc1n[nH]cc1C21CCN(S(=O)(=O)c2cnn(CC(F)(F)F)c2)CC1 [Compound 948123]
IC50 [1, 9]: ≤ 100 nM | IC50 [1, 13]: 100 to 1000 nM | IC50 [2, 10]: ≤ 100 nM | IC50 [2, 14]: 100 to 1000 nM

CC[C@@]1(c2ccccc2)C2=C(CC3(CCC3)CC2=O)Nc2n[nH]cc21 [Compound 819573]
IC50 [1, 3]: ≤ 100 nM | IC50 [2, 4]: 100 to 1000 nM

CCC1(c2cccc(C(F)(F)F)c2)C2=C(CCN(c3cncnc3)C2=O)Nc2n[nH]cc21 (stereo not drawn) [Compound 948379]
IC50 [1, 3]: ≤ 100 nM | IC50 [1, 11]: 100 to 1000 nM | IC50 [2, 4]: 100 to 1000 nM | IC50 [2, 12]: > 5000 nM

CC1(C)CC(=O)C2=C(C1)Nc1n[nH]cc1C21CCN(S(=O)(=O)c2ccc(F)c(F)c2)CC1 [Compound 948119]
IC50 [1, 9]: ≤ 100 nM | IC50 [2, 10]: ≤ 100 nM

CC[C@@]1(c2cccc(-c3ccncc3O)c2)C2=C(CC(C)(C)CC2=O)Nc2n[nH]cc21 [Compound 945728]
IC50 [1, 9]: 1000 to 5000 nM | IC50 [2, 10]: > 5000 nM

CC[C@@]1(c2cccc(-c3cnn(C(C)(C)C)c3)c2)C2=C(CC(C)(C)NC2=O)Nc2n[nH]cc21 [Compound 949107]
IC50 [1, 3]: > 5000 nM | IC50 [2, 4]: > 5000 nM

CC1(C)CC(=O)C2=C(C1)Nc1n[nH]cc1C21CCC(C(F)(F)F)CC1 (stereo not drawn) [Compound 865193]
IC50 [1, 9]: ≤ 100 nM | IC50 [1, 13]: 100 to 1000 nM | IC50 [2, 10]: ≤ 100 nM | IC50 [2, 14]: 1000 to 5000 nM

CC[C@@]1(c2ccccc2)C2=C(CC(C)(C)[C@H](F)C2=O)Nc2n[nH]cc21 [Compound 957405]
IC50 [1, 9]: 100 to 1000 nM | IC50 [2, 10]: 1000 to 5000 nM

CC[C@@]1(c2ccccc2)C2=C(C[C@@]3(CCN(C)C3=O)CC2=O)Nc2n[nH]cc21 [Compound 949760]
IC50 [1, 9]: 100 to 1000 nM | IC50 [2, 10]: > 5000 nM

CC1CC(C(=O)N2CC3(C2)CC2(CO3)C3=C(CC(C)(C)CC3=O)Nc3n[nH]cc32)C1 (stereo not drawn) [Compound 947266]
IC50 [1, 5]: ≤ 100 nM | IC50 [2, 6]: ≤ 100 nM

CCC1(c2cccc(-c3ccnc(C)c3)c2)C2=C(CC(C)(C)NC2=O)Nc2n[nH]c(C(F)(F)F)c21 (stereo not drawn) [Compound 948773]
IC50 [1, 3]: 1000 to 5000 nM | IC50 [2, 4]: > 5000 nM

CCN(c1cccnc1)c1cccc(C2(CC)C3=C(CC(C)(C)CC3=O)Nc3n[nH]cc32)c1 (stereo not drawn) [Compound 885331]
IC50 [1, 7]: ≤ 100 nM | IC50 [2, 8]: ≤ 100 nM

CC1(C)CC(=O)C2=C(C1)Nc1n[nH]cc1C21CCN(S(=O)(=O)c2cnn(CCF)c2)CC1 [Compound 947903]
IC50 [1, 9]: ≤ 100 nM | IC50 [2, 10]: ≤ 100 nM

CC(=O)N1CC2(C1)CC1(CO2)C2=C(CC(C)(C)CC2=O)Nc2n[nH]cc21 (stereo not drawn) [Compound 913058]
IC50 [1, 5]: ≤ 100 nM | IC50 [1, 11]: ≤ 100 nM | IC50 [2, 6]: ≤ 100 nM | IC50 [2, 12]: 100 to 1000 nM

CC[C@H]1CCN1c1cccc([C@@]2(CC)C3=C(CC(C)(C)CC3=O)Nc3n[nH]cc32)c1 [Compound 911972]
IC50 [1, 7]: 1000 to 5000 nM | IC50 [2, 8]: > 5000 nM

CC1(C)CC(=O)C2=C(C1)Nc1n[nH]cc1C21CCN(S(=O)(=O)C2CC2)CC1 [Compound 901470]
IC50 [1, 9]: ≤ 100 nM | IC50 [1, 13]: 100 to 1000 nM | IC50 [2, 10]: ≤ 100 nM | IC50 [2, 14]: 100 to 1000 nM
